One assay relates to MYCN mRNA. The assay is described as follows: qRT-PCR of MYCN mRNA in NBEB cells. It is filed as cell-based. The following applies: NBEB cells, 24, 36, 48 h, higher concentrations. As for the experimental part:
To examine the effects of G4-binding compounds on NBEB cells, live-cell imaging was performed using an Incucyte interface (described below). NBEB (5K/well), cells were seeded into 96-well plates in triplicate, treated with compound MY-8 at various concentrations (0-45 μM), and cultured until control wells reached confluence. For RT-qPCR and western blotting, NBEB (300K) cells were treated with MY-8 in 6-well dish for 48 h. To examine the time-dependent decrease in MYCNOs expression, cells were treated with 22.5 μM and 45 μM MY-8 and analyzed at various times (0, 4, 24, 48, 72 and 96 h). To validate cell viability, a Trypan Blue exclusion test was performed following treatment at 48 h and 96 h post treatment and the proportion of live versus dead cells was calculated using a hemocytometer.
Quantitative RT-PCR. Total RNA was extracted from NBEB cells according to manufacturer's instructions (RNeasy Plus Mini Extraction kit (#74134) (Qiagen, CA). RNA (1 μg) was reverse transcribed into cDNA using the cDNA synthesis High-Capacity RNA-to-cDNA™ Kit. Quantitative PCR was performed using Fast SYBR™ Green Master Mix according to the manufacturer's protocol. Beta-actin was used as a housekeeping gene. Relative expression was calculated using the 2(−ΔCt) method. The qPCR primer sequences can be found in supplementary materials.

The target of the next assay is HIV HP-G4. In words: FIA binding test with HIV HP-G4 ((3+1) hybrid structure). On the procedure: (§1) In this study, FIA was used for validating the bindings between certain bivalent and MYCN G4 oligos. To measure the binding affinity, a solution of each compound was prepared in triplicate in a 96 well-plate (Costar, black side clear bottom), resulting in a final concentration of 100 nM (5% final DMSO in the working solution). Unlabeled MYCN G4 DNA was folded based on the above-mentioned annealing method, then added into the well plate resulting in different concentrations by a seral dilution. The plate was incubated at room temperature for 30 min, followed by centrifuging at 500 rpm for 2 minutes. The fluorescence intensity was then quantitatively recorded by a Synergy Mx microplate reader (BioTek) at Ex 340 nm/Em 500 nm. The fluorescence intensities were then normalized, and the binding affinity was calculated by fitting the curve using one-site total model in GraphPad Prism 8.3.1 software.
(§2) In addition to the DMS-footprinting study, the bivalent binding mode of compound B33 toward MYCN hairpin-G4 was also investigated by comparing HP-G4s with different folding types. Four reported HP-G4s with parallel structure (BCL2), (3+1) hybrid structure (HIV and PIM1-form1), and (2+2) chair-type structure (PIM1-form2) were examined by FIA binding test using compound B33 (FIGS. 41A, 41B, 42A, 42B, 43A, 43B, 44A, and 44B). […]

For assay [1], the system named is ~19,000 different G4 sequences, G4 and non-G4 controls. In words: High-density DNA oligo microarray (~19,000 G4 sequences) selectivity profiling. It is filed as binding. The conditions noted are these: 500 nM compound. From the text:
To further characterize the binding selectivity of compound B33, high-density and large-scale DNA microarrays that contained ˜19,000 different G4 sequences were fabricated and used. In this microarray, 340 reported G4s (G-rich sequences) as well as 280 non-G4s (C-rich sequences) were designed as positive and negative controls. Additionally, over 17,000 canonical G4 oligos with short loops (1˜7 nt) were also designed and synthesized by varying the loop sequences to meet the diversity of G4 structure. After folding the surface-grafted DNA oligos in high concentration of KCl buffer, TO and compound B33 solutions (500 nM) were incubated with the microarray, respectively. Then the slides were thoroughly washed, dried, and imaged by a fluorescent scanner using green channel. […] By quantifying the fluorescence intensity of each spot, the bindings of TO and compound B33 were further investigated. The kernel density estimate (KDE) plot and violin plot represented the distribution of the binding signals throughout the whole microarray. […] Compound B33 spectrum spanned a much wider range than that of TO. In the violin plot (FIG. 37C), the mean SNR value of TO group was 12, much higher than that of the compound B33 group. […] Furthermore, the selectivity of the two compounds were quantitatively profiled by using Gini coefficient. Gini coefficient, initially used as an economic concept, has been applied in profiling the selectivity/promiscuity of kinase inhibitors as well as RNA binders. A higher Gini value represents a better selectivity of a compound (Gini coefficient>0.75 is considered an excellent selectivity). The Gini coefficient based on the SNRs in the microarray.

The test system of the next assay is MANGO II RNA G4. In words: SPR binding to MANGO II RNA G4. The conditions noted are these: duplex-containing RNA G4.
The target of the next assay is MYCN hairpin-G4 DNA. In words: FIA using compound fluorescence (Ex 340/Em 500 nm), titration with unlabeled MYCN G4 DNA. The following applies: 100 nM compound titrated with folded unlabeled MYCN G4. The assay is classed as binding, human. In short, it runs like this: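 Compound at 100 nM final (5% DMSO) was titrated with serially diluted, pre-annealed unlabeled MYCN G4 DNA and incubated 30 min at room temperature. Intrinsic compound fluorescence (Ex 340/Em 500 nm) was normalised, and affinity was fitted to a one-site total model.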

The target in the next assay is PIM1-form1 HP-G4. The assay is described as follows: FIA binding test with PIM1-form1 HP-G4 ((3+1) hybrid structure). On the procedure: as §1, §2
The target in another assay is PIM1-form2 HP-G4. In words: FIA binding test with PIM1-form2 HP-G4 ((2+2) chair-type structure). The following applies: read-out: binding affinity, PIM1-form2 HP-G4. On the procedure:
as §1, §2

Another assay has as its system BCL2 HP-G4. The assay is described as follows: FIA binding test with BCL2 HP-G4 (parallel structure). As for the experimental part: as §1, §2
The next assay has as its target MYCN G4 DNA. In words: Microscale thermophoresis (MST) with 3′-Cy5 MYCN G4 DNA. The conditions noted are these: 3′-Cy5 labeled MYCN G4, 1:1 binding model; read-out: binding affinity by MST. Also on record: species or system human. As for the experimental part: Microscale thermophoresis (MST). MST experiments were carried out on a Monolith NT.115 system (NanoTemper Technologies). The 3′-Cy5 MYCN G4 DNA solutions were prepared in 10 mM Tris (pH 7.5), 100 mM KCl, 0.005% T20, annealed (according to the above-mentioned method), and diluted to 100 nM (2×). The DMSO solutions of small molecules were prepared in the buffer with a series 1:1 dilution, resulting in 2× of designed concentrations (10% DMSO). Then, DNA samples were 1:1 (v/v) mixed with corresponding small molecule solutions, resulting in 50 nM DNA and 5% DMSO. Finally, MST signals were detected in triplicate capillaries, and the dissociation constant was determined by fitting the curve using a single-site model (MO.Affinity Analysis v2.3).

For assay [2], the target named is five 5′Cy5-labeled G4s from cancer-relevant genes (BCL2, KRAS, mTOR, NRAS, telomeric DNA). The assay is described as follows: FIA selectivity profiling with five other 5′Cy5-labeled G4s. The assay is classed as binding. The conditions noted are these: five 5′Cy5-labeled G4s other than MYCN.

Data on three compounds can be found in patent US20240287054A1, “COMPOUNDS THAT BIND NON-CANONICAL G-QUADRUPLEX STRUCTURES AND METHODS OF MAKING AND USING THE SAME” (The U.S.A., as Represented by the Secretary, Department of …, priority 2021, published 2024).

With `COc1ccc(-c2noc(-c3ccc(NCCCN4CCCCCC4)nn3)n2)cc1` [MY-8, N-(3-(azepan-1-yl)propyl)-6-(3-(4-methoxyphenyl)-1,2,4-oxadiazol-5-yl)pyridazin-3-amine], in the assay with MYCN mRNA, the “MYCN mRNA level” value is reported as “clear decreases of mRNA level”.
Take `COc1ccc(-c2noc(-c3ccc(NCCCNc4c5ccc(Cl)cc5nc5ccc(OC)cc45)nn3)n2)cc1` [B33, N^1-(6-chloro-2-methoxyacridin-9-yl)-N^3-(6-(3-(4-methoxyphenyl)-1,2,4-oxadiazol-5-yl)pyridazin-3-yl)propane-1,3-diamine]: the Kd at HIV HP-G4 came to 151 ± 26 nM; on MYCN hairpin-G4 DNA it was 66 ± 7 nM; on PIM1-form1 HP-G4 it was 279 ± 32 nM; at PIM1-form2 HP-G4 it was 1100 ± 400 nM; at BCL2 HP-G4 (FIA) it was 258 ± 39 nM. Also, the “binding to the 620 G4 and non-G4 controls” value in assay [1] (340 G4s and 280 non-G4s) is given as “some binding to G4s while there was no binding observed in non-G4 group”. In assay [1] (based on SNRs in the microarray), this compound displayed a Gini coefficient of 0.628. Further, in the assay on MANGO II RNA G4, the “binding to MANGO II RNA G4 by SPR” value was “weak binding”. In the assay with BCL2 HP-G4 (BCL2 HP-G4 vs MYCN HP-G4), the “fold weaker than MYCN HP-G4” value is about 4 times.
Consider `COc1ccc(-c2noc(-c3ccc(NCCCN4CCCC4)nn3)n2)cc1` [MY-1, 6-(3-(4-methoxyphenyl)-1,2,4-oxadiazol-5-yl)-N-(3-(pyrrolidin-1-yl)propyl)pyridazin-3-amine], for which the Kd at MYCN G4 DNA stood at 8100 ± 1700 nM. The “binding affinities (KD) to other G4s” value in assay [2] was “no significant quenching behavior”.
